Measured values as given in patent publication US20260083708A1, “IL-17 MODULATORS AND USES THEREOF” (NNOCARE PHARMA INC., priority 2024, published 2026).

Experiments:
[1] = system: IL-17AF-induced IL-17 signaling pathway; experiment: Inhibition of IL-17AF-induced IL-17 signaling pathway; assay type: cell-based; conditions: Homo sapiens; IL-17AF used instead of IL-17AA; read-out: IC50 for Inhibiting IL-AF Signaling
Summary of the method: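 HEK293-derived HEK-Blue IL-17 cells (IL-17RA/RC, ACT1, NF-κB/AP-1-driven SEAP) preincubated 1 hour at 37° C with serially diluted compound from 10 μM, then stimulated with IL-17AF for 20 hours. SEAP read colorimetrically at 620 nm; IC50 from 4-parameter fit of % inhibition.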

[2] = system: IL-17AA-induced IL-17 signaling pathway; experiment: Inhibition of IL-17AA-induced IL-17 signaling pathway in HEK-Blue IL-17 reporter cells (SEAP); assay type: cell-based; conditions: Homo sapiens; HEK-Blue IL-17 cells, IL-17AA 2.5 ng/mL, 20 hours; read-out: IC50 for Inhibiting IL-AA Signaling
Summary of the method: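 HEK-Blue IL-17 cells (HEK293 expressing human IL-17RA/RC, ACT1 and NF-κB/AP-1-driven SEAP), 10,000/well, pre-incubated with compound (serial dilution from 10 μM) for 1 h at 37 °C, then stimulated with IL-17AA at 2.5 ng/mL final for 20 h. SEAP in supernatant read with Quanti-Blue at 620 nm; IC50 by 4-parameter fit.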

[3] = system: rat collagen induced arthritis (CIA) model; experiment: In vivo efficacy study in rat collagen induced arthritis (CIA) model; conditions: female Lewis rats, 20 mg/kg PO once a day, 14 days
Experimental: Example 45. In Vivo Efficacy Study in Rat Collagen Induced Arthritis (CIA) Model
Bovine type II collagen solution (Chondrex) was emulsified with an equal volume of incomplete Freund's adjuvant (IFA, Sigma) to achieve an emulsion with a collagen concentration of 1 mg/mL. Female Lewis rats were immunized with the emulsion (200 μL per rat) through subcutaneous injection at the base of tail. After seven days from the initial immunization, rats received a booster injection of the emulsion (100 μL per rat). Each paw of the rat was evaluated and scored on a 0-4 scale based on arthritis severity, and the arthritis score of each rat was the sum of scores from four paws. When the arthritis scores reached 2-3, rats were randomized into four groups and dosed once a day via oral gavage (PO) with vehicle, compounds 35, 49 and 66 for 14 days, respectively. The arthritis score was assessed every other day. Efficacy was calculated by [1−(T14−T0)/(V14−V0)]×100%, where T14 and V14 are the average arthritis scores of the treatment group and the vehicle group on Day 14 of measurement, respectively, while T0 and V0 are the average arthritis scores of the treatment group and the vehicle group on Day 0, respectively. Statistical significance of difference in arthritis scores between the treatment and vehicle groups was analyzed using one-way ANOVA followed by Dunnett's test, and P<0.05 was considered statistically significant.

IL-17AA and IL-17RA = molecular target: T1, IL-17AA and IL-17RA (Homo sapiens, UniProt Q16552); experiment: Competitive inhibition of human IL-17AA and IL-17RA binding (HTRF); conditions: recombinant IL-17AA (His-tag) and IL-17RA (hFc-tag); read-out: IC50 for Inhibiting IL-AA/IL-RA Binding
T1 construct: purchased Sino Biological 12047-H07B (IL-17AA); 10895-H02H (IL-17RA)
T1 sequence (Q16552 24-155): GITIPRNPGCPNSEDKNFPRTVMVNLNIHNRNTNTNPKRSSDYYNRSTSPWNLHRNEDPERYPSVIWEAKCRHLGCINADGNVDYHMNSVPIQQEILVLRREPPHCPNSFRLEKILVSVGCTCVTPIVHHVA
Summary of the method: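 His-IL-17AA (1 nM) premixed 1 h with anti-His-Tb (0.4 nM), and Fc-IL-17RA (1 nM) with anti-IgG-d2 (1 μg/mL); these are pre-mix levels. Compounds, diluted from 10 μM, preincubated 2 h RT with IL-17AA mix; IL-17RA mix then added, 20 min. 665/615 ratio vs no-compound and no-IL-17AA controls; IC50 by 4-parameter fit.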

Question: Which results are given for [2H]C([2H])([2H])n1nccc1C(=O)N[C@H](C(=O)Nc1ccc([C@H](C)[C@@H](NC(=O)COC)c2ncnn2CC2CC2)cc1F)C(C1CC1)C1CC1 [Compound 35, N-((S)-1,1-dicyclopropyl-3-((4-((1R,2S)-1-(1-(cyclopropylmethyl)-1H-1,2,4-triazol-5-yl)-1-(2-methoxyacetamido)propan-2-yl)-2-fluorophenyl)amino)-3-oxopropan-2-yl)-1-(methyl-d3)-1H-pyrazole-5-carboxamide]?
Answer: IC50 [1]: 8.6 nM; IC50 [2]: 4.5 nM; suppression of arthritis disease progression (arthritis score) [3]: completely suppressed arthritis disease progression; IC50 (IL-17AA and IL-17RA): 5.2 nM

Question: Which results are given for COCC(=O)N[C@@H](c1ncnn1CC1CC1)[C@@H](C)c1ccc(NC(=O)[C@@H](NC(=O)c2nonc2C)C(C2CC2)C2CC2)c(F)c1 [Compound 39, N-((S)-1,1-dicyclopropyl-3-((4-((1R,2S)-1-(1-(cyclopropylmethyl)-1H-1,2,4-triazol-5-yl)-1-(2-methoxyacetamido)propan-2-yl)-2-fluorophenyl)amino)-3-oxopropan-2-yl)-4-methyl-1,2,5-oxadiazole-3-carboxamide]?
Answer: IC50 [1]: 2.6 nM; IC50 [2]: 1.8 nM; suppression of arthritis disease progression (arthritis score) [3]: completely suppressed arthritis disease progression; IC50 (IL-17AA and IL-17RA): 2.2 nM

Question: Which IC50 [1] does the source give for CCC(=O)N[C@@H](c1ncnn1CC1CC1)[C@@H](C)c1ccc(NC(=O)[C@@H](NC(=O)c2nonc2C)C(C2CC2)C2CC2)c(F)c1 [Compound 66, N-((S)-1,1-dicyclopropyl-3-((4-((1R,2S)-1-(1-(cyclopropylmethyl)-1H-1,2,4-triazol-5-yl)-1-propionamidopropan-2-yl)-2-fluorophenyl)amino)-3-oxopropan-2-yl)-4-methyl-1,2,5-oxadiazole-3-carboxamide] here?
Answer: 8.4 nM

Question: And the IC50 [2]?
Answer: 3.3 nM

Question: What about the “suppression of arthritis disease progression (arthritis score)” value [3] of the same compound?
Answer: completely suppressed arthritis disease progression

Question: And the IC50 (IL-17AA and IL-17RA)?
Answer: 1.1 nM

Question: What does the source list for CCC(=O)N[C@H](c1ncnn1CC1CC1)[C@@H](C)c1ccc(NC(=O)[C@@H](NC(=O)c2nonc2C)C(C2CC2)C2CC2)c(F)c1 [Compound 83, N-((S)-1,1-dicyclopropyl-3-((4-((1S,2S)-1-(1-(cyclopropylmethyl)-1H-1,2,4-triazol-5-yl)-1-propionamidopropan-2-yl)-2-fluorophenyl)amino)-3-oxopropan-2-yl)-4-methyl-1,2,5-oxadiazole-3-carboxamide]?
Answer: IC50 [1]: 39 nM; IC50 [2]: 45 nM; IC50 (IL-17AA and IL-17RA): 21 nM

Question: With CCC(=O)N[C@@H](c1ncnn1CC1CC1)[C@@H](C)c1ccc(NC(=O)[C@H](NC(=O)c2nonc2C)C(C2CC2)C2CC2)c(F)c1 [Compound 84, N-((R)-1,1-dicyclopropyl-3-((4-((1R,2S)-1-(1-(cyclopropylmethyl)-1H-1,2,4-triazol-5-yl)-1-propionamidopropan-2-yl)-2-fluorophenyl)amino)-3-oxopropan-2-yl)-4-methyl-1,2,5-oxadiazole-3-carboxamide] as the compound, how does the IC50 [1] read?
Answer: 85 nM

Question: What about the IC50 [2] of the same compound?
Answer: 63 nM

Question: And the IC50 (IL-17AA and IL-17RA)?
Answer: 31 nM

Question: For [2H]C([2H])([2H])n1nccc1C(=O)N[C@@H](C(=O)Nc1ccc([C@H](C)[C@@H](NC(=O)CC)c2ncnn2CC2CC2)cc1F)C(C1CC1)C1CC1 [Compound 85, N-((R)-1,1-dicyclopropyl-3-((4-((1R,2S)-1-(1-(cyclopropylmethyl)-1H-1,2,4-triazol-5-yl)-1-propionamidopropan-2-yl)-2-fluorophenyl)amino)-3-oxopropan-2-yl)-1-(methyl-d3)-1H-pyrazole-5-carboxamide], which IC50 [1] is on record?
Answer: 810 nM

Question: And the IC50 [2]?
Answer: 539 nM

Question: And the IC50 (IL-17AA and IL-17RA)?
Answer: 165 nM

Question: For [2H]C([2H])([2H])n1ccc(C(=O)N[C@H](C(=O)Nc2ccc([C@H](C)[C@@H](NC(=O)CC)c3ncnn3CC3CC3)cc2F)C(C2CC2)C2CC2)n1 [Compound 86, N-((S)-1,1-dicyclopropyl-3-((4-((1R,2S)-1-(1-(cyclopropylmethyl)-1H-1,2,4-triazol-5-yl)-1-propionamidopropan-2-yl)-2-fluorophenyl)amino)-3-oxopropan-2-yl)-1-(methyl-d3)-1H-pyrazole-3-carboxamide], which IC50 [1] is on record?
Answer: 228 nM

Question: What about the IC50 [2] of the same compound?
Answer: 143 nM

Question: What about the IC50 (IL-17AA and IL-17RA) of the same compound?
Answer: 23 nM

Question: [2H]C([2H])([2H])n1nccc1C(=O)N[C@H](C(=O)Nc1ccc([C@H](C)[C@H](NC(=O)CC)c2ncnn2CC2CC2)cc1F)C(C1CC1)C1CC1 [Compound 87, N-((S)-1,1-dicyclopropyl-3-((4-((1S,2S)-1-(1-(cyclopropylmethyl)-1H-1,2,4-triazol-5-yl)-1-propionamidopropan-2-yl)-2-fluorophenyl)amino)-3-oxopropan-2-yl)-1-(methyl-d3)-1H-pyrazole-5-carboxamide] was tested. Which IC50 [1] did it give?
Answer: > 2000 nM

Question: What about the IC50 [2] of the same compound?
Answer: > 2000 nM

Question: And the IC50 (IL-17AA and IL-17RA)?
Answer: 1980 nM

Question: CCn1nccc1C(=O)N[C@H](C(=O)Nc1ccc([C@H](C)[C@@H](NC(=O)COC)c2nnc3cnccn23)cc1F)C(C1CC1)C1CC1 [Compound 88, N-((S)-1-((4-((1R,2S)-1-([1,2,4]triazolo[4,3-a]pyrazin-3-yl)-1-(2-methoxyacetamido)propan-2-yl)-2-fluorophenyl)amino)-3,3-dicyclopropyl-1-oxopropan-2-yl)-1-ethyl-1H-pyrazole-5-carboxamide] was tested. Which IC50 [1] did it give?
Answer: 98 nM

Question: What about the IC50 [2] of the same compound?
Answer: 42 nM

Question: What about the IC50 (IL-17AA and IL-17RA) of the same compound?
Answer: 23 nM
